Test results taken from ChEMBL document CHEMBL4483862, “Open-source discovery of chemical leads for next-generation chemoprotective antimalarials” (2018).

Tested on: Plasmodium berghei
Assay: Luciferase/luciferin-expressing antifolate-resistant parasites were used to infect a culture of HepG2 cells that were pre-incubated with compounds. Infected hepatocytes emit light due to the luciferase reaction. Assay results are presented as the percent inhibition of light emission compared to control. […]
Format: functional
Settings: sporozoite; for IC90: read-out: LUCIFERASE INFECTION ASSAY - IC90
[1] = read-out: LUCIFERASE INFECTION ASSAY - IC50

| SMILES | IC90 [µM] | further results |
| --- | --- | --- |
| CC(C)n1ncc2cc(NC(=O)c3cccc(S(=O)(=O)NCc4ccccc4)c3)cnc21 | > 10 | IC50 (PBLUC_HILL_SLOPE 1.68, PBLUC_R_SQUARED 0.408, read-out: LUCIFERASE INFECTION ASSAY - IC50): 6.12 µM |
| Cc1ccc(NS(=O)(=O)c2ccc(C(=O)Nc3ncccc3O)cc2)cc1 | 0.462 | IC50 (FFLUC_HILL_SLOPE 0.564, FFLUC_R_SQUARED 0.118, HEPG2TOX_HILL_SLOPE 3.99, HEPG2TOX_R_SQUARED 0.784, PBLUC_HILL_SLOPE 9.26, PBLUC_R_SQUARED 0.767, read-out: LUCIFERASE INFECTION ASSAY - IC50): 0.364 µM |
| COc1cc(-c2cnc(N)c(-c3ccc(F)c(Cl)c3)c2)ccc1O | > 9.57 | IC50 (PBLUC_HILL_SLOPE 10.3, PBLUC_R_SQUARED 0.243, read-out: LUCIFERASE INFECTION ASSAY - IC50): 8.4 µM |
| CCOC(=O)Nc1ccc2c(Cn3cnc4sc5c(c4c3=O)CCC5)cc(=O)oc2c1 | > 10 | IC50 (FFLUC_HILL_SLOPE 14, FFLUC_R_SQUARED 0.282, read-out: LUCIFERASE INFECTION ASSAY - IC50): > 10 µM |
| COc1ccc(C2=C(NCCc3ccccc3)c3ccccc3C2=O)cc1 | 0.404 | IC50 (FFLUC_HILL_SLOPE 105, FFLUC_R_SQUARED 0.774, PBLUC_HILL_SLOPE 1.53, PBLUC_R_SQUARED 0.754, read-out: LUCIFERASE INFECTION ASSAY - IC50): 0.096 µM |
| O=C(Nc1nc(-c2ccccn2)cs1)C1CCCN(C(=O)c2ccc(Cl)cc2)C1 (stereo not given) | > 10 | IC50 (FFLUC_HILL_SLOPE 0.539, FFLUC_R_SQUARED 0.289, HEPG2TOX_HILL_SLOPE 0.153, HEPG2TOX_R_SQUARED 0.318, read-out: LUCIFERASE INFECTION ASSAY - IC50): > 10 µM |
| CC(C)N1C(=O)N(CCc2ccccc2)C2(CCN(Cc3ccccc3)CC2)C1=O | > 8.14 | IC50 (HEPG2TOX_HILL_SLOPE 15.6, HEPG2TOX_R_SQUARED 0.916, PBLUC_HILL_SLOPE 3.95, PBLUC_R_SQUARED 0.588, read-out: LUCIFERASE INFECTION ASSAY - IC50): 4.99 µM |
| O=C(CCc1ccc2c(c1)OCO2)Nc1nc(-c2ccc(Br)s2)cs1 | > 10 | IC50 (PBLUC_HILL_SLOPE 0.607, PBLUC_R_SQUARED 0.509, read-out: LUCIFERASE INFECTION ASSAY - IC50): 5.99 µM |
| CC(C)(C)c1ccc(Oc2ccc(/C=C/C(=O)c3ccc(NC4=NCCCS4)cc3)cc2[N+](=O)[O-])cc1 | > 10 | IC50 (PBLUC_HILL_SLOPE 13, PBLUC_R_SQUARED 0.461, read-out: LUCIFERASE INFECTION ASSAY - IC50): 8.77 µM |
| Cc1cnc(C)c(Nc2nc(C(N)Cc3ccc(C(F)(F)F)cc3)cs2)n1 (stereo not given) | > 8.39 | IC50 [1]: > 8.39 µM |
| CC(C)(C)NC(=O)CN1CCN(Cc2ccc(-c3ccccc3C#N)cc2)CC1 | > 10 | IC50 (HEPG2TOX_HILL_SLOPE 0.417, HEPG2TOX_R_SQUARED 0.524, read-out: LUCIFERASE INFECTION ASSAY - IC50): > 10 µM |
| Cc1ccc(-n2nc(C)c3c(C(=O)N4CCC(C)CC4)cc(-c4ccncc4)nc32)cc1 | > 10 | IC50 [1]: > 10 µM |
| Cc1ccc(C(=O)c2ccccc2C(=O)OC(C)C(=O)N(Cc2ccccc2)Cc2ccccc2)cc1 (stereo not given) | 9.62 | IC50 (HEPG2TOX_HILL_SLOPE 7.35, HEPG2TOX_R_SQUARED 0.243, PBLUC_HILL_SLOPE 15.7, PBLUC_R_SQUARED 0.159, read-out: LUCIFERASE INFECTION ASSAY - IC50): 8.36 µM |
| Cc1ccc(Nc2ncccc2C(=O)Nc2nc3ccccc3[nH]2)c(C)c1 | 7.9 | IC50 (HEPG2TOX_HILL_SLOPE 7.67, HEPG2TOX_R_SQUARED 0.775, PBLUC_HILL_SLOPE 5.03, PBLUC_R_SQUARED 0.402, read-out: LUCIFERASE INFECTION ASSAY - IC50): 5.1 µM |
| OC1CCC(Nc2nn3c(-c4cccc(OC(F)(F)F)c4)cnc3s2)CC1 (stereo not given) | > 8.28 | IC50 (FFLUC_HILL_SLOPE 6.8, FFLUC_R_SQUARED 0.0322, read-out: LUCIFERASE INFECTION ASSAY - IC50): > 8.28 µM |
| O=C(Cn1ncc(Cl)c(Cl)c1=O)Nc1cc(S(=O)(=O)N2CCOCC2)ccc1Cl | 3.74 | IC50 (HEPG2TOX_HILL_SLOPE 12.1, HEPG2TOX_R_SQUARED 0.84, PBLUC_HILL_SLOPE 14, PBLUC_R_SQUARED 0.266, read-out: LUCIFERASE INFECTION ASSAY - IC50): 3.2 µM |
| Cc1ccc(C(C)C)c(OCCCNCCc2ccccc2)c1 | 9.99 | IC50 (HEPG2TOX_HILL_SLOPE 12.1, HEPG2TOX_R_SQUARED 0.387, PBLUC_HILL_SLOPE 24.3, PBLUC_R_SQUARED 0.56, read-out: LUCIFERASE INFECTION ASSAY - IC50): 9.13 µM |
| CC1=C/C(=N\NC(=O)c2ccc(Br)cc2)CC(C)(C)C1 | > 10 | IC50 (PBLUC_HILL_SLOPE 2.58, PBLUC_R_SQUARED 0.715, read-out: LUCIFERASE INFECTION ASSAY - IC50): 6.68 µM |
| CCCc1ccc(-c2nc(-c3ccccc3)no2)cc1 | 0.0999 | IC50 (FFLUC_HILL_SLOPE 35.1, FFLUC_R_SQUARED 0.438, PBLUC_HILL_SLOPE 1.27, PBLUC_R_SQUARED 0.957, read-out: LUCIFERASE INFECTION ASSAY - IC50): 0.0177 µM |
| O=C(Nc1ccc(OC(F)(F)F)cc1)Nc1cc(-c2cccs2)n[nH]1 | > 8.96 | IC50 [1]: > 8.96 µM |

| SMILES | IC90 [µM] | further results |
| --- | --- | --- |
| C=C(C)CN(CC)c1nc(N)c(C#N)c(C(C#N)Cc2ccc(C)cc2)c1C#N (stereo not given) | 8.18 | IC50 (HEPG2TOX_HILL_SLOPE 73.4, HEPG2TOX_R_SQUARED 0.557, PBLUC_HILL_SLOPE 3.82, PBLUC_R_SQUARED 0.311, read-out: LUCIFERASE INFECTION ASSAY - IC50): 4.6 µM |
| Cc1cc2oc(=O)cc(Cn3cnc([N+](=O)[O-])c3)c2cc1C | > 10 | IC50 (PBLUC_HILL_SLOPE 0.353, PBLUC_R_SQUARED 0.0201, read-out: LUCIFERASE INFECTION ASSAY - IC50): > 10 µM |
| CCN(CC)Cc1ccc(CNC(=O)c2oc3ccccc3c2CSc2nnc[nH]2)cc1 | > 10 | IC50 [1]: 2.48 µM |
| Nc1cc(Cl)c(-n2cccc2)cc1Oc1ccc(Cl)cc1 | > 10.3 | IC50 (FFLUC_HILL_SLOPE 2.28, FFLUC_R_SQUARED 0.58, read-out: LUCIFERASE INFECTION ASSAY - IC50): > 10.3 µM |
| CN(c1nc2ccccc2nc1O)C1CCCCC1 | > 10 | IC50 [1]: > 10 µM |
| CCN(c1ccccc1)S(=O)(=O)c1ccc(OCC(=O)N(C)Cc2nc3ccccc3s2)cc1 | > 10 | IC50 (PBLUC_HILL_SLOPE 9.53, PBLUC_R_SQUARED 0.61, read-out: LUCIFERASE INFECTION ASSAY - IC50): 9.27 µM |
| O=C(N/N=C1/C(=O)c2cccc3cccc1c23)c1cccc(S(=O)(=O)N2CCCCC2)c1 | > 10 | IC50 [1]: > 10 µM |
| Cc1cc(NC(=O)C(c2ccc(Cl)cc2)C(C)C)ccc1Br (stereo not given) | > 10 | IC50 [1]: > 10 µM |
| COc1ccc(/C=C2\CCCc3c2nc2ccccc2c3C(=O)OCc2cccc(C(F)(F)F)c2)cc1OC | > 10 | IC50 [1]: > 10 µM |
| NC(=O)C1Cc2ccccc2CN1S(=O)(=O)c1cccc2c1N=S=N2 (stereo not given) | > 10 | IC50 [1]: > 10 µM |
| N#Cc1ccc(Cl)cc1NC(=O)CNc1cc(C(F)(F)F)ccc1N1CCCC1 | 4.15 | IC50 (PBLUC_HILL_SLOPE 5.67, PBLUC_R_SQUARED 0.48, read-out: LUCIFERASE INFECTION ASSAY - IC50): 2.82 µM |
| CCCCc1ccc2nc(NC(=O)c3cnc(C)cn3)sc2c1 | > 10 | IC50 (HEPG2TOX_HILL_SLOPE 2.45, HEPG2TOX_R_SQUARED 0.834, PBLUC_HILL_SLOPE 1.44, PBLUC_R_SQUARED 0.354, read-out: LUCIFERASE INFECTION ASSAY - IC50): > 10 µM |
| Cc1cc(C)n(-c2ccc(NC(=O)C3(c4ccccc4)CC3)cn2)n1 | 0.834 | IC50 (PBLUC_HILL_SLOPE 3.93, PBLUC_R_SQUARED 0.515, read-out: LUCIFERASE INFECTION ASSAY - IC50): 0.477 µM |
| CCOC(=O)c1sc2nc(C)nc(N(C)Cc3ccccc3)c2c1C | > 10 | IC50 (PBLUC_HILL_SLOPE 1.75, PBLUC_R_SQUARED 0.422, read-out: LUCIFERASE INFECTION ASSAY - IC50): 7.96 µM |
| O=C(c1ccc([N+](=O)[O-])o1)N1CCc2sccc2C1c1ccccc1 (stereo not given) | > 10 | IC50 (HEPG2TOX_HILL_SLOPE 0.0396, HEPG2TOX_R_SQUARED 0.037, PBLUC_HILL_SLOPE 3.01, PBLUC_R_SQUARED 0.32, read-out: LUCIFERASE INFECTION ASSAY - IC50): 6.65 µM |
| COc1ccc(S(=O)(=O)N2CCCCC2)cc1NC(=O)c1nn(CC(C)C)c(=O)c2ccccc12 | 4.38 | IC50 (FFLUC_HILL_SLOPE 27.6, FFLUC_R_SQUARED 0.604, PBLUC_HILL_SLOPE 11.9, PBLUC_R_SQUARED 0.273, read-out: LUCIFERASE INFECTION ASSAY - IC50): 3.64 µM |
| O=C(Nc1ncccc1O)c1ccc(-n2cnc3ccccc32)cc1 | 6.03 | IC50 (PBLUC_HILL_SLOPE 1.70, 2.04, PBLUC_R_SQUARED 0.693, 0.681, read-out: LUCIFERASE INFECTION ASSAY - IC50): 1.8 µM |
| COc1cccc(/C=C/C(=O)Oc2c(Cl)cc(Cl)c3ccc(C)nc23)c1OC | 9.03 | IC50 (PBLUC_HILL_SLOPE 3.32, PBLUC_R_SQUARED 0.808, read-out: LUCIFERASE INFECTION ASSAY - IC50): 4.66 µM |
| CC(C)(C)c1ccc(C(O)c2nc(C(=O)NC3CC3)cs2)cc1 (stereo not given) | 1.29 | IC50 (HEPG2TOX_HILL_SLOPE 1.09, HEPG2TOX_R_SQUARED 0.894, PBLUC_HILL_SLOPE 10.5, PBLUC_R_SQUARED 0.569, read-out: LUCIFERASE INFECTION ASSAY - IC50): 1.05 µM |
| Cc1nccn1Cc1cccc(CNS(=O)(=O)c2ccc3ccccc3c2)c1 | > 10 | IC50 [1]: > 10 µM |
